Test results: article PMC10731000, “Functional characterization of three G protein-coupled acetylcholine receptors in parasitic nematode Trichinella spiralis” (International Journal for Parasitology: Drugs and Drug …, 2023)
Entries after “also recorded” stand apart in the source; their conditions may differ. Counter-ions that a name gives are not always drawn. Like-named read-outs stand apart in the source and are kept apart here.

Legend:
TsGAR-3 [1] = biological target: T1, TsGAR-3 (Trichinella spiralis, UniProt E5S5F5); test: Aequorin calcium mobilization agonist assay in CHO-K1 cells expressing TsGAR-3; type: cell-based; details: for ACh-mediated calcium mobilization via TsGAR-3 (in words): Fig. 4
From the text: (§1) T. spiralis GARs were heterologously expressed in CHO–K1 cells (Sigma) along with the aequorin reporter—with or without the wild-type human G protein alpha 15 subunit (Gα15(16)) (cDNA Resource Center, Bloomsburg University of Pennsylvania)—to observe activation of the receptor by monitoring bioluminescence triggered by the mobilization of intracellular calcium ([Offermanns and Simon, 1995]; [Park et al., 2002]). Therefore, there were two types of transient expression: i) TsGAR-1, -2, or -3/aequorin/Gα15(16); and ii) TsGAR-1, -2, or -3/aequorin. The use of Gα15(16) in the first assay is due to its highly efficient way of linking calcium mobilization signaling pathways to GPCRs that are preferentially coupling with Gi/o or Gs protein members ([Offermanns and Simon, 1995]).
(§2) For handling cell lines, all transfection details, and monitoring receptor activities, we followed the previously published study ([Šimo et al., 2011], [2013]; [Mateos-Hernández et al., 2020]). Briefly, CHO–K1 cells were kept in growth medium (Ham's F12 Media with 10% fetal bovine serum) until 70% of confluence was reached. FuGENE® HD Transfection Reagent (Promega) was then used to transfect the plasmid constructs. Prior to the assay, the cells were pre-equilibrated with coelenterazine h (Promega) for 3 h at room temperature. The assay was performed in opaque 96-well microplates (Nunc) using either Fluostar Omega (BMG Labtech) or GloMax® Plate Reader (Promega). In agonist assays, 50 μL of various doses of agonistic ligands were added to wells in triplicate, followed by injection of 50μL/∼15,000 of CHO–K1 cells. Immediately after the cell injections, luminescence values were monitored for 25 s and their integrated values over time were normalized to the largest positive control response in each plate (45 μM ACh) after background noise was subtracted. When performing the antagonist assay, cells were pre-incubated with different doses of antagonistic ligands for 5 min in RT (in a 96-well plate) and subsequently a 50 μL of 10 μM ACh solution was injected into the wells. The changes in luminescence were measured for 25 s immediately after injecting ACh, and time integrated values were normalized to the response of those wells in each plate that only contained cells with medium. A dose-response curve was plotted afterwards for each data set and half-maximum response values (EC50 or IC50) along the Hill coefficient (nH) were calculated using GraphPad Prism 8.0 (GraphPad Software). Two and three biological replicates were performed for the testing of T. spiralis GARs with or without the Gα15(16) and agonistic or antagonistic assay, respectively, with three technical replicates for each ligand. In terms of negative controls, a mock transfection was performed using empty pcDNA3.1 (+) plasmid, with an aequorin reporter and Gα15(16) subunit. To confirm the specificity of T. spiralis GAR-1, -2, and -3 affinity, we tested dopamine, octopamine and norepinephrine chemical agents.

TsGAR-1 [2] = biological target: T2, TsGAR-1 (Trichinella spiralis, UniProt A0A0V1C1R2); test: Aequorin calcium mobilization agonist assay in CHO-K1 cells expressing TsGAR-1; type: cell-based; details: for ACh-mediated calcium mobilization via TsGAR-1 (in words): Fig. 4
From the text: as §1, §2

TsGAR-2 [3] = biological target: T3, TsGAR-2 (Trichinella spiralis, UniProt E5SAZ1); test: Aequorin calcium mobilization agonist assay in CHO-K1 cells expressing TsGAR-2; type: cell-based; details: for ACh-mediated calcium mobilization via TsGAR-2 (in words): Fig. 4
From the text: as §1, §2

A. suum GAR-1 = system: A. suum GAR-1; set-up: method as in Kimber et al., 2009; details: ref Kimber et al., 2009; cited from earlier work
C. elegans GAR-1 = system: C. elegans GAR-1; set-up: method as in Lee et al., 1999, Lee et al., 2000; details: ref Lee et al., 1999, Lee et al., 2000; cited from earlier work
TsGAR-3 [4] = biological target: T1, TsGAR-3; test: Aequorin antagonist assay (block of 10 μM ACh response) in CHO-K1 cells expressing TsGAR-3; type: cell-based; details: for nH (Hill coefficient), antagonist, TsGAR-3 / antagonist effect on TsGAR-3 (in words): without Gα15(16)
Method: Therefore, there were two types of transient expression: i) TsGAR-1, -2, or -3/aequorin/Gα15(16); and ii) TsGAR-1, -2, or -3/aequorin.
as §2, with “Briefly,” for “For handling cell lines, all transfection details, and monitoring receptor activities, we followed the previously published study ([Šimo et al., 2011], [2013]; [Mateos-Hernández et al., 2020]). Briefly,”, “Immediately after the cell injections, luminescence values were monitored for 25 s and their integrated values over time were normalized to the largest positive control response in each plate (45 μM ACh) after background noise was subtracted.” left out

T. castaneum mAChR-B = system: T. castaneum mAChR-B; set-up: method as in Collin et al., 2013; details: ref Collin et al., 2013, cited from earlier work; for antagonist effect on T. castaneum mAChR-B (in words): same expression system as this study
TsGAR-2 [5] = biological target: T3, TsGAR-2; test: Aequorin antagonist assay (block of 10 μM ACh response) in CHO-K1 cells expressing TsGAR-2; type: cell-based; details: co-expressed with Gα15(16)
From the text: as §1, §2

D. melanogaster mAChR-B = system: D. melanogaster mAChR-B; set-up: method as in Collin et al., 2013; details: ref Collin et al., 2013, cited from earlier work; for antagonist effect on D. melanogaster mAChR-B (in words): same expression system as this study
TsGAR-1 [6] = biological target: T2, TsGAR-1; test: Aequorin antagonist assay (block of 10 μM ACh response) in CHO-K1 cells expressing TsGAR-1; type: cell-based; details: co-expressed with Gα15(16)
From the text: as §1
as §2, with “In terms of negative controls, a mock transfection was performed using empty pcDNA3.1 (+) plasmid, with an aequorin reporter and Gα15(16) subunit. To confirm the specificity of T. spiralis GAR-1, -2, and -3 affinity, we tested dopamine, octopamine and norepinephrine chemical agents.” left out

[7] = expressed alone, without Gα15(16)
[8] = agonist, co-expressed with Gα15(16)
[9] = times lower sensitivity than mAChR-A

T1 sequence (E5S5F5 entry or part of it): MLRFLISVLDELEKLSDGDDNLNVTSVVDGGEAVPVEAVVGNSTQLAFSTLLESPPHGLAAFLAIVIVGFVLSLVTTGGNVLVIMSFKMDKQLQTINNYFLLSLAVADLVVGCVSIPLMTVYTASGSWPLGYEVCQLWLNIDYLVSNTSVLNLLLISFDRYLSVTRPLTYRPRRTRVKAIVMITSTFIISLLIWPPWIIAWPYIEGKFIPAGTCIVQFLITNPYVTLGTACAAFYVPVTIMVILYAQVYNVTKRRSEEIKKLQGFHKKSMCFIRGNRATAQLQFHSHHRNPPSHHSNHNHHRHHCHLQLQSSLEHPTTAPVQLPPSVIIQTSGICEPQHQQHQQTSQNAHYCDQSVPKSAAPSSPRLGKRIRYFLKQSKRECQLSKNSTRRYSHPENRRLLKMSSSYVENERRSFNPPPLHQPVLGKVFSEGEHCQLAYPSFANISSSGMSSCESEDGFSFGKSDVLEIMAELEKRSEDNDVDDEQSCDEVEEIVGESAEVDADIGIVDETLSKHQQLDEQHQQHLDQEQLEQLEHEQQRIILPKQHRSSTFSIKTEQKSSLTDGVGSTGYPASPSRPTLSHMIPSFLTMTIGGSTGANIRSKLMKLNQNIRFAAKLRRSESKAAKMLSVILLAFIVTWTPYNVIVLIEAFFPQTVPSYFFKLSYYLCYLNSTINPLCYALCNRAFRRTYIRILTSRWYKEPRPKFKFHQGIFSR
T2 sequence (A0A0V1C1R2 entry or part of it): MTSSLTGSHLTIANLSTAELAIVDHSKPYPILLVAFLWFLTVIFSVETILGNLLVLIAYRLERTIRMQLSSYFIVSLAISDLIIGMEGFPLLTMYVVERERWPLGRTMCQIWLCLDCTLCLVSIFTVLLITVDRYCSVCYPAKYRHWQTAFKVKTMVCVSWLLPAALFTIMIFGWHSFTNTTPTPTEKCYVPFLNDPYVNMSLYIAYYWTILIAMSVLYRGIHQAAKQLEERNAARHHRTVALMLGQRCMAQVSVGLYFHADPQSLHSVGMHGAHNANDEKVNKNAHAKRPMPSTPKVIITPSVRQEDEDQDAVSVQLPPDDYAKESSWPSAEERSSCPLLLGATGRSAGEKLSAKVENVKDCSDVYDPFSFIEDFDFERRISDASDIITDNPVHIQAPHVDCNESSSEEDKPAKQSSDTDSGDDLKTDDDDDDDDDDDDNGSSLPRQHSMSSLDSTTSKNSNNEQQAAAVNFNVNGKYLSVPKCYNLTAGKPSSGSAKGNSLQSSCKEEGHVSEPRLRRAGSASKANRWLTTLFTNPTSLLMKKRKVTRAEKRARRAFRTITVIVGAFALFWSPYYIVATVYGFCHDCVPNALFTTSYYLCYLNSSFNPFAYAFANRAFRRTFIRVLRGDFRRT
T3 sequence (E5SAZ1 entry or part of it): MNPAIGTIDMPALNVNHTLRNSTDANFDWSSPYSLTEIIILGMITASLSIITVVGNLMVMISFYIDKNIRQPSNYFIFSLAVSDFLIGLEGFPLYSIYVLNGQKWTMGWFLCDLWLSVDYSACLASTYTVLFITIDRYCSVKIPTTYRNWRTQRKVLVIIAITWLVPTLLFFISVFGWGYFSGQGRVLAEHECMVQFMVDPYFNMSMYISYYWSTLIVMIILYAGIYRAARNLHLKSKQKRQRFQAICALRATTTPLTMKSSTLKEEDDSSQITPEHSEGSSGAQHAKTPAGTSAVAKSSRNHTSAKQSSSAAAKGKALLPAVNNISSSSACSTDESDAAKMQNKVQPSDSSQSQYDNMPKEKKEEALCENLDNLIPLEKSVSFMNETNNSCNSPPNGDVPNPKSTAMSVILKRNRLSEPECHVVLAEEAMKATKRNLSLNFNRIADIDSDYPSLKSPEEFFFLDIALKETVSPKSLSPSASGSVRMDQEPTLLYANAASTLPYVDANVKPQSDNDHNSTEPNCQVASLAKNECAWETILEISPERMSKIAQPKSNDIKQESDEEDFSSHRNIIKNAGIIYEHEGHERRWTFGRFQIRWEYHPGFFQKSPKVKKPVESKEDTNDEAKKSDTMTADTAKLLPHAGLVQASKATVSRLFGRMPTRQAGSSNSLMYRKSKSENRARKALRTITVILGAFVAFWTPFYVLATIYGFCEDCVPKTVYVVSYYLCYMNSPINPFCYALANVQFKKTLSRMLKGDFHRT

| Compound | EC50 (TsGAR-3 [1]) | nH (Hill coefficient), agonist, TsGAR-3 (TsGAR-3 [1]; without Gα15(16)) | agonist activity on TsGAR-3 (in words) (TsGAR-3 [1]; without Gα15(16)) | nH (Hill coefficient), agonist, TsGAR-1 (TsGAR-1 [2]; [8]) | agonist activity on TsGAR-1 (in words) (TsGAR-1 [2]; co-expressed with Gα15(16)) | nH (Hill coefficient), agonist, TsGAR-2 (TsGAR-2 [3]; [8]) | agonist activity on TsGAR-2 (in words) (TsGAR-2 [3]; co-expressed with Gα15(16)) | EC50 (TsGAR-1 [2]) | EC50 (TsGAR-2 [3]) | further results |
| --- | --- | --- | --- | --- | --- | --- | --- | --- | --- | --- |
| CC(=O)OCC[N+](C)(C)C [Acetylcholine, acetylcholine chloride] | 400 ± 73.1 nM | 0.7319 | potent activator | 0.8621 | potent activator | 0.5883 | potent activator | – | – | ACh-mediated calcium mobilization via TsGAR-3 (in words) (TsGAR-3 [1]; co-expressed with Gα15(16)): dose-dependent activity; ACh-mediated calcium mobilization via TsGAR-3 (in words) (TsGAR-3 [1]; [7]): effective responses; EC50 (TsGAR-1 [2]; agonist, CHO cells, co-expressed with Gα15(16), SE of three biological replications, read-out: EC50 ± SE (nM), TsGAR-1): 194 ± 18.1 nM; ACh-mediated calcium mobilization via TsGAR-1 (in words) (TsGAR-1 [2]; co-expressed with Gα15(16)): dose-dependent activity; ACh-mediated calcium mobilization via TsGAR-1 (in words) (TsGAR-1 [2]; [7]): effective responses; EC50 (TsGAR-2 [3]; agonist, CHO cells, co-expressed with Gα15(16), SE of three biological replications, read-out: EC50 ± SE (nM), TsGAR-2): 14.7 ± 10.8 nM; ACh-mediated calcium mobilization via TsGAR-2 (in words) (TsGAR-2 [3]; co-expressed with Gα15(16)): dose-dependent activity; ACh-mediated calcium mobilization via TsGAR-2 (in words) (TsGAR-2 [3]; [7]): effective responses |
| COC(=O)C1=CCCN(C)C1 [Arecoline, arecoline hydrobromide] | 457 ± 156 nM | 1.199 | partial agonist | 1.054 | partial agonist | – | did not detect any arecoline-triggered activation | 4630 ± 841 nM | – | agonist activity on A. suum GAR-1 (in words) (A. suum GAR-1): effectively activate |
| CN1[C@@H]2CC[C@H]1C[C@@H](OC(=O)C(CO)c1ccccc1)C2 (stereo partly shown) [Atropine, atropine] | – | – | – | – | – | – | – | – | – | antagonist effect on C. elegans GAR-1 (in words) (C. elegans GAR-1): effective in inhibiting; also recorded: effectively blocked; IC50 (TsGAR-3 [4]): 222 ± 42.7 nM; nH (Hill coefficient), antagonist, TsGAR-3 (TsGAR-3 [4]): −0.8748; antagonist effect on TsGAR-3 (in words) (TsGAR-3 [4]): effectively inhibited; antagonist effect on T. castaneum mAChR-B (in words) (T. castaneum mAChR-B): remained unaffected; antagonist effect on TsGAR-2 (in words) (TsGAR-2 [5]): not effective in blocking; antagonist effect on D. melanogaster mAChR-B (in words) (D. melanogaster mAChR-B): remained unaffected; antagonist effect on A. suum GAR-1 (in words) (A. suum GAR-1): effective in inhibiting; also recorded: effectively blocked; antagonist effect on TsGAR-1 (in words) (TsGAR-1 [6]): not effective in blocking; also recorded: totally ineffective |
| CC(C[N+](C)(C)C)OC(N)=O (stereo not shown) [Bethanechol, bethanechol chloride] | > 10000 nM | 1.390 | low potency | 0.9289 | low potency | 0.8738 | low potency | > 10000 nM | > 10000 nM | agonist activity on A. suum GAR-1 (in words) (A. suum GAR-1): agonistic effect was shown |
| C[N+](C)(C)CCOC(N)=O [Carbachol, carbamoylcholine chloride] | 1930 ± 256 nM | 0.9117 | – | 0.8693 | – | 0.9531 | – | 2050 ± 235 nM | 2670 ± 508 nM | – |
| C[C@@H]1O[C@H](C[N+](C)(C)C)C[C@H]1O [Muscarine, (+)-muscarine chloride] | 2500 ± 960 nM | 0.7106 | potent agonist | – | no | 0.8666 | low affinity | – | > 10000 nM | sensitivity of T. castaneum mAChR-B relative to mAChR-A (T. castaneum mAChR-B; [9]): ~100 times; sensitivity of D. melanogaster mAChR-B relative to mAChR-A (D. melanogaster mAChR-B; [9]): about 1000 times |
| CN1[C@@H]2C[C@@H](OC(=O)[C@H](CO)c3ccccc3)C[C@H]1[C@@H]1O[C@@H]12 [Scopolamine, (−)-scopolamine hydrobromide trihydrate] | – | – | – | – | – | – | – | – | – | IC50 (TsGAR-3 [4]): 27.3 ± 6.3 nM; nH (Hill coefficient), antagonist, TsGAR-3 (TsGAR-3 [4]): −1.151; antagonist effect on TsGAR-3 (in words) (TsGAR-3 [4]): effectively inhibited; antagonist effect on T. castaneum mAChR-B (in words) (T. castaneum mAChR-B): remained unaffected; antagonist effect on TsGAR-2 (in words) (TsGAR-2 [5]): not effective in blocking; antagonist effect on D. melanogaster mAChR-B (in words) (D. melanogaster mAChR-B): remained unaffected; antagonist effect on TsGAR-1 (in words) (TsGAR-1 [6]): not effective in blocking |
